In US20240130994A1, “IONIC LIQUID FORMULATIONS FOR TREATING DIABETES” (i2O Therapeutics, Inc., priority 2020, published 2024):

Tests used:
[1] = Physical form of choline-based ionic liquids at room temperature; format: physicochemical
Experimental: Several ionic liquids comprising choline as a cation and various anions were synthesized. […] For anions not miscible with the aqueous choline bicarbonate solution, a co-solvent, such as ethanol, was added until a homogenous mixture formed. The mixture was stirred at room temperature until CO2 evolution ceased. Solvent was removed by rotary evaporation at 60° C. for 20 minutes, and each product was dried in a vacuum oven for 48 hours at 60° C.

[2] = test system: non-diabetic male Wistar rats; assay: Blood glucose levels after intrajejunal injection in fasted non-diabetic rats; format: in vivo, rat; settings: 38 μL dose (acid content of 50 μL ionic liquid)
Experimental: About 250 μL of blood was collected at regular intervals in order to determine the blood glucose level. The obtained values, plotted as mean percent change±standard error in blood glucose levels with respect to initial reading (n=3) versus time, are shown in FIG. 7.
About 250 μL of blood was collected at regular intervals in order to determine the blood glucose level. The obtained values, plotted as mean percent change±standard error in blood glucose levels with respect to initial reading (n=3) versus time, are shown in FIG. 8.
The obtained values, plotted as mean percent change±standard error in blood glucose levels with respect to initial reading (n=4) versus time, are shown in FIG. 9.

[3] = cation:anion 1:1, room temperature
[4] = cation:anion 2:1, room temperature
[5] = cation:anion 1:2, room temperature

Molecule | Physical Form (Ratios Listed as Cation:Anion) [1, 3] | Physical Form (Ratios Listed as Cation:Anion) [1, 5] | other results
O=C(O)CCCC(=O)O [Glutaric Acid] | Liquid at 2:1, 1:1 | – | Physical Form (Ratios Listed as Cation:Anion) [1, 4]: Liquid at 2:1, 1:1
CC(C)CCC(=O)O [4-Methylvaleric Acid] | – | Liquid at 1:2 | –
CCCCCC[C@@H](O)C/C=C\CCCCCCCC(=O)O [Ricinoleic Acid] | Liquid at 1:1, 1:2 | Liquid at 1:1, 1:2 | –
CCCCCC(=O)O [Hexanoic Acid] | Liquid at 1:1, 1:2 | Liquid at 1:1, 1:2 | –
O=C(O)CC(O)(CC(=O)O)C(=O)O [Citric Acid] | Solid | – | Physical Form (Ratios Listed as Cation:Anion) [1, 4]: Liquid; Physical Form (Ratios Listed as Cation:Anion) ([1]; cation:anion 3:1, room temperature): Liquid; Physical Form (Ratios Listed as Cation:Anion) ([1]; cation:anion 4:1, room temperature): Liquid
CCCCC(C)CCC(=O)O (stereo not shown) [4-Methyloctanoic Acid] | Liquid | Solid | –
CC(C)C1=CC2=CC[C@@H]3[C@](C)(CCC[C@@]3(C)C(=O)O)[C@H]2CC1 [Abietic Acid] | Solid at 1:1 | – | –
CCCC/C=C/CC(=O)O [Trans-3-Octenoic Acid] | Liquid at 1:1, 1:2 | Liquid at 1:1, 1:2 | –
N[C@@H](CCC(=O)N[C@@H](CS)C(=O)NCC(=O)O)C(=O)O [L-Glutathione reduced] | – | – | Physical Form (Ratios Listed as Cation:Anion) [1, 4]: Solid at 2:1
O=C1O[C@H]([C@@H](O)CO)C(O)=C1O [L-Ascorbic Acid] | Solid at 1:1 | – | –
C=C(C)[C@@H]1CC=C(C(=O)O)CC1 [Perillic Acid] | Solid at 1:1 | – | –
C/C=C/C=C/C(=O)O [Sorbic Acid] | Liquid at 1:1, 1:2 | Liquid at 1:1, 1:2 | –
CC(=O)C(=O)O [Pyruvic Acid] | Liquid at 1:1, 1:2 | Liquid at 1:1, 1:2 | –
CCCCCCCCC(CCCCCC)C(=O)O (stereo not shown) [2-Hexyldecanoic Acid] | Liquid at 1:1 | – | –
O=C(O)CCCCCC(=O)O [Pimelic Acid] | Liquid at 2:1, 1:1 | – | Physical Form (Ratios Listed as Cation:Anion) [1, 4]: Liquid at 2:1, 1:1
CC(C)Cc1ccc(C(C)C(=O)O)cc1 (stereo not shown) [2-(4-Isobutylphenyl)propionic Acid] | Solid at 1:1 | – | –
CCCCCCCCCCCC(=O)O [Lauric Acid] | Solid at 1:1, 1:2 | Solid at 1:1, 1:2 | –
O=C(O)[C@H](O)[C@@H](O)[C@@H](O)[C@H](O)CO [D-(+)-Galactonic Acid] | Solid at 1:1 | – | –
CC(CCC(C(=O)O)C(C)CC(C)(C)C)CC(C)(C)C (stereo not shown) [2-(4,4-Dimethyl-2-pentanyl)-5,7,7-trimethyloctanoic Acid] | Solid at 1:1 | – | –

Molecule | Physical Form (Ratios Listed as Cation:Anion) [1, 3] | Physical Form (Ratios Listed as Cation:Anion) [1, 5] | other results
O=C(O)CNC(=O)c1ccccc1O [2-Hydroxyhippuric Acid] | Solid at 1:1 | – | –
CCCCCCCC/C=C\CCCCCCCC(=O)O [Oleic Acid] | Solid at 1:1, 1:2 | Solid at 1:1, 1:2 | –
CCC/C=C/C(=O)O [Trans-2-Hexenoic Acid] | Liquid at 1:1, 1:2 | Liquid at 1:1, 1:2 | –
O=C(O)CCC(=O)C(=O)O [α-Ketoglutaric Acid] | – | – | Physical Form (Ratios Listed as Cation:Anion) [1, 4]: Liquid at 2:1
C/C(=C\C(=O)O)C(=O)O [Mesaconic Acid] | Solid | – | Physical Form (Ratios Listed as Cation:Anion) [1, 4]: Liquid
CCCCCCCCCC(=O)O [Decanoic Acid] | Solid | Solid | Physical Form (Ratios Listed as Cation:Anion) ([1]; cation:anion 1:1, room temperature, listed as decanoic acid): solid; Physical Form (Ratios Listed as Cation:Anion) ([1]; cation:anion 1:2, room temperature, listed as decanoic acid): solid; Physical Form (Ratios Listed as Cation:Anion) [1, 4]: Liquid; Physical Form (Ratios Listed as Cation:Anion) ([1]; cation:anion 2:1, room temperature, listed as decanoic acid): liquid; appearance and physical form ([1]; room temperature, ratio as in label): waxy solid
CCC(=O)O [Propionic Acid] | Liquid at 2:1, 1:1 | – | Physical Form (Ratios Listed as Cation:Anion) [1, 4]: Liquid at 2:1, 1:1
COc1cc(C(=O)O)ccc1O [Vanillic Acid] | Solid at 1:1 | – | –
CC(C)=CCCC(C)CC(=O)O (stereo not shown) [citronellic acid alone, citronellic acid, reference compound] | – | – | blood glucose levels, % of starting levels [2]: about 30%
O=C(O)CC(O)C(=O)O (stereo not shown) [Malic Acid] | Liquid at 2:1, 1:1 | – | Physical Form (Ratios Listed as Cation:Anion) [1, 4]: Liquid at 2:1, 1:1
O=c1oc2c(O)c(O)cc3c(=O)oc4c(O)c(O)cc1c4c23 [Ellagic Acid] | Solid at 1:1 | – | –
O=C(O)CCC(=O)O [Succinic Acid] | Liquid at 2:1, 1:1, 1:2 | Liquid at 2:1, 1:1, 1:2 | Physical Form (Ratios Listed as Cation:Anion) [1, 4]: Liquid at 2:1, 1:1, 1:2
CC(C)=CCC/C(C)=C/C(=O)O [Geranic Acid] | Liquid at 1:1, 1:2 | Liquid at 1:1, 1:2 | –
CCCCC/C=C\C/C=C\C/C=C\C/C=C\CCCC(=O)O [Arachidonic Acid] | Solid at 1:1 | – | –
CC(O)C(=O)O (stereo not shown) [Lactic Acid] | Liquid at 1:1, 1:2 | Liquid at 1:1, 1:2 | –
CC(C)CCCC(C)CC(=O)O (stereo not shown) [3,7-Dimethyloctanoic Acid] | Solid at 1:1, 1:2 | Solid at 1:1, 1:2 | –
O=C(O)CCCC[C@@H]1CCSS1 [(R)-α-Lipoic Acid] | Solid at 2:1, 1:1, 1:2, | Solid at 2:1, 1:1, 1:2, | Physical Form (Ratios Listed as Cation:Anion) [1, 4]: Solid at 2:1, 1:1, 1:2,
C=CCCCCCC(=O)O [Trans-7-Octenoic Acid] | Liquid at 1:1, 1:2 | Liquid at 1:1, 1:2 | –

The next lines start with results.

Physical Form (Ratios Listed as Cation:Anion) [1, 3] | Physical Form (Ratios Listed as Cation:Anion) [1, 5] | Molecule | other results
Solid at 1:1 | – | COc1cc(C(=O)O)cc(OC)c1O [Syringic Acid] | –
Solid | Liquid | O=P(O)(O)O [Phosphoric Acid] | Physical Form (Ratios Listed as Cation:Anion) [1, 4]: Liquid
Liquid at 1:1, 1:2 | Liquid at 1:1, 1:2 | O=C(O)C(O)c1ccccc1 (stereo not shown) [Mandelic Acid] | –
Liquid at 1:1, 1:2 | Liquid at 1:1, 1:2 | CCC(C)CCC(=O)O (stereo not shown) [4-Methylhexanoic Acid] | –
Liquid at 1:1, 1:2 | Liquid at 1:1, 1:2 | C/C=C/C(=O)O [Crotonic Acid] | –
Solid at 1:1 | – | O=C(O)/C=C/c1ccc(O)c(O)c1 [Caffeic Acid] | –
Liquid at 1:1, 1:2 | Liquid at 1:1, 1:2 | CC(=O)CCC(=O)O [Levulinic Acid] | –
Solid at 1:1, 1:2 | Solid at 1:1, 1:2 | CCCCCCCCC(=O)O [Nonanoic Acid] | –
Solid | – | O=C(O)/C=C/C(=O)O [Fumaric Acid] | Physical Form (Ratios Listed as Cation:Anion) [1, 4]: Liquid
Liquid at 2:1, 1:1 | – | O=C(O)CO [Glycolic Acid] | Physical Form (Ratios Listed as Cation:Anion) [1, 4]: Liquid at 2:1, 1:1
Solid at 1:1 | – | COc1cc(/C=C/C(=O)O)ccc1O [Trans-Ferulic Acid] | –
Liquid at 1:1 | – | O=C(O)CC(=O)O [Malonic Acid] | –
Liquid at 1:1, 1:2 | Liquid at 1:1, 1:2 | CCCCC/C=C/C(=O)O [Trans-2-Octenoic Acid] | –
Solid | Liquid | Cc1ccc(S(=O)(=O)O)cc1 [p-Toluenesulfonic Acid] | –
Liquid at 2:1, 1:1 | – | O=C(O)/C=C\C(=O)O [Maleic Acid] | Physical Form (Ratios Listed as Cation:Anion) [1, 4]: Liquid at 2:1, 1:1
Solid at 1:1 | – | Dihydrobenzoic Acid | –
Liquid at 2:1, 1:1, 1:2 | Liquid at 2:1, 1:1, 1:2 | CC(=O)O [Acetic Acid] | Physical Form (Ratios Listed as Cation:Anion) [1, 4]: Liquid at 2:1, 1:1, 1:2
Solid at 1:1 | – | O=C(O)C1CC2C=CC1C2 (stereo not shown) [5-Norbornene-2-carboxylic Acid] | –
Solid | Liquid | O=C1CC[C@@H](C(=O)O)N1 [Pyroglutamic Acid] | –
Solid at 1:1 | – | CCCCCCCCCCC(=O)O [Undecanoic Acid] | –
Solid at 1:1, 1:2 | Solid at 1:1, 1:2 | CCCCCCC/C=C/C(=O)O [Trans-2-Decenoic Acid] | –
Solid at 1:1 | – | CC/C=C\C/C=C\C/C=C\C/C=C\C/C=C\CCCC(=O)O [Eicosapentanoic Acid (EPA)] | –
